Test results reported in PubChem BioAssay (NCI).
“And” between values parts separate entries of the source, which are not always exact repeats. Identical values can stand only once.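 Where inhibition never reached the appropriate level, the endpoint shown equals the highest concentration tested. Otherwise, values were interpolated linearly from a five-concentration, 48-hour dose response in 96-well plates. The concentration for 50% growth inhibition is given as GI50. TGI: total growth inhibition.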

Tests used:
Test in all cases: NCI-60 cell line screen, 48 h
[1] = tested on: HOP-92 NSCLC
[2] = tested on: OVCAR-3 ovarian
[3] = tested on: SK-MEL-28 melanoma
[4] = tested on: MALME-3M melanoma
[5] = tested on: MCF7 breast
[6] = tested on: BT-549 breast
[7] = tested on: SN12C renal
[8] = tested on: COLO 205 colon
[9] = tested on: MOLT-4 leukemia
[10] = tested on: RPMI-8226 leukemia

Row | Compound | GI50 [1] | TGI [1] | GI50 [2] | TGI [2] | GI50 [3] | TGI [3] | GI50 [4] | TGI [4] | GI50 [5] | TGI [5] | GI50 [6] | TGI [6] | GI50 [7] | TGI [7] | GI50 [8] | TGI [8] | GI50 [9] | TGI [9] | GI50 [10] | TGI [10]
1 | CCN1CCN(CC(=O)Nc2nc3ccc(NCc4ccc(C)cc4)cc3s2)CC1 | 0.504 µM | 2.34 µM | 4.93 µM | 13.7 µM | 0.929 µM | 1.92 µM | 1.04 µM | 2.43 µM | 1.81 µM | 8.41 µM | 6.45 µM | 19.3 µM | 4.11 µM | 11.1 µM | 1.03 µM | 2.1 µM | 1.59 µM | 5.99 µM | 1.09 µM | 3.34 µM
2 | COC(=O)c1c2c(c(C)[n+]([O-])c1C)C(=O)C=C(NCc1ccc(Br)cc1)C2=O | 1.74 µM | 3.6 µM | 0.252 µM | 0.845 µM | 0.987 µM | 2.72 µM | 0.154 µM | 0.389 µM | 0.255 µM | 1.07 µM | 1.15 µM | 2.53 µM | 0.581 µM | 1.74 µM | 0.322 µM | 1.17 µM | 0.87 µM | 3.99 µM | 1.47 µM | 5.1 µM
3 | O=C1NC(=O)C(N2CCc3ccccc32)=C1c1ccc(Cl)cc1 | 6.38 µM | > 25 µM | > 25 µM | > 25 µM | > 25 µM | > 25 µM | > 25 µM | > 25 µM | > 25 µM | > 25 µM | > 15.5 µM | > 25 µM | > 25 µM | > 25 µM | > 25 µM | > 25 µM | > 25 µM | > 25 µM | > 25 µM | > 25 µM
4 | NS(=O)(=O)c1cccc(-c2cc3ccncc3cc2OCc2ccccc2)c1 | 4.39 µM | > 25 µM | 10.9 µM | > 25 µM | 5.85 µM | > 25 µM | 14.7 µM | > 25 µM | 10.5 µM | > 25 µM | 7.65 µM | > 25 µM | 14.5 µM | > 25 µM | 10.7 µM | > 25 µM | 8.44 µM | > 25 µM | 6.66 µM | > 25 µM
5 | Cc1cc(Br)c2nsnc2c1[N+](=O)[O-] | 7.24 µM | 22.1 µM | 1.69 µM | 3.08 µM | 3.34 µM | 7.67 µM | 2.08 µM | 6.55 µM | 0.391 µM | 3.02 µM | 3.95 µM | 12 µM | 4.93 µM | 17.2 µM | 3.01 µM | 7.97 µM | 1.64 µM | 4.93 µM | 0.666 µM | 9.55 µM
6 | Nc1cccc2c1CN(C1CCC(=O)NC1=O)C2=O (stereo not given) | > 34.2 µM | > 100 µM | > 100 µM | > 100 µM | > 100 µM | > 100 µM | > 100 µM | > 100 µM | > 100 µM | > 100 µM | > 100 µM | > 100 µM | > 100 µM | > 100 µM | > 100 µM | > 100 µM | > 100 µM | > 100 µM | > 100 µM | > 100 µM
7 | O=C1c2ccccc2C(=O)c2c(NCCNCCO)ccc(NCCNCCO)c21 | 0.289 µM and 0.508 µM and 0.227 µM | 4.94 µM and 5.08 µM and 2.08 µM | 2.41 µM and 2.86 µM and 2.72 µM | 7.71 µM and 11.5 µM and 11 µM | 1.46 µM and 1.61 µM and 1.7 µM | 3.14 µM and 3.87 µM and 5.01 µM | 1.6 µM and 1.18 µM and 1.21 µM | 4.97 µM and 6.88 µM and 3.85 µM | 0.0479 µM and 0.0696 µM and 0.069 µM | 0.948 µM and 2.39 µM and 4.99 µM | 2.98 µM and 7.28 µM and 6.25 µM | 14.9 µM and 20.7 µM and 21.7 µM | 0.183 µM and 0.358 µM and 0.292 µM | 4.57 µM and 12.5 µM and 9.84 µM | 1.01 µM and 1.27 µM and 0.724 µM | 3 µM and 5.1 µM and 2.64 µM | 0.151 µM and 0.142 µM and 0.167 µM | 59.7 µM and 11.5 µM | 1.49 µM and 3.37 µM and 1.8 µM | 12.2 µM and 33 µM and 10.9 µM
8 | CC(=O)Nc1c(I)c(C(=O)O)c(I)c(N(C)C(C)=O)c1I | > 100 µM | > 100 µM | > 100 µM | > 100 µM | > 100 µM | > 100 µM | > 100 µM | > 100 µM | > 100 µM | > 100 µM | > 100 µM | > 100 µM | > 100 µM | > 100 µM | > 100 µM | > 100 µM | > 100 µM | > 100 µM | > 100 µM | > 100 µM
9 | COc1ccc(Oc2nc(Nc3ccc(N4CCOCC4)cc3)ncc2NC(=O)Nc2cc(OC)cc(OC)c2)cc1 | 1.26 µM | 5.1 µM | 1.41 µM | 5.46 µM | 2.5 µM | 9.73 µM | 0.969 µM | 3.27 µM | 4.97 µM | > 33.3 µM | 1.59 µM | 7.98 µM | 1.17 µM | 4.5 µM | 5.27 µM | 14.7 µM | 10.6 µM | > 33.3 µM | 5.21 µM | 32.6 µM
10 | Cc1ccc(-c2c3c(N)nc(-c4ccncc4)nc3nc3c2c(C)nn3-c2ccccc2)cc1 | 5.61 µM | 22 µM | 7.65 µM | 20.1 µM | 7.69 µM | > 37.5 µM | 7.73 µM | 16.2 µM | 3.63 µM | 24.4 µM | 7.38 µM | 17.9 µM | 2.58 µM | > 37.5 µM | 35.3 µM | > 37.5 µM | > 37.5 µM | > 37.5 µM | 18.6 µM | > 37.5 µM
